The values below come from US8455495B2, “Pyridazino-pyridinone compounds and methods of use” (Amgen Inc., priority 2008, dated 2013).

In one experiment the target is recombinant human p38α (Homo sapiens, UniProt Q16539). Description: Purified and activated recombinant human p38α HTRF assay. It is filed as biochemical. As to conditions: 1 nM p38α, 50 μM ATP, GST-ATF2 substrate, read-out: p38a IC50. The procedure: Purified and Activated Recombinant Human p38α Assay Kinase Reaction Buffer: […] HTRF Detection Buffer: […] Serial Dilution of Compounds: […] Columns 6 and 12 (HI controls and LO controls respectively) in the drug plate were reserved as controls and contained only DMSO. Kinase Reaction: […] See table below for actual concentrations. In the absence of substrate, the background was measured as LO control. […] Assay Reagent Concentrations: […] HTRF Detection: […] After 60 minutes incubation at room temperature, the assay plate was read in a Discovery Plate Reader. The wells were excited with coherent 320 nm light and the ratio of delayed ([…] post excitation) emissions at […] (native europium fluorescence) and 665 nm (europium fluorescence transferred to allophycocyanin-an index of substrate phosphorylation) was determined (Park et al, 1999). Data Analysis: […] Data (consisting of POC and inhibitor concentration in μM) was fitted to a 4-parameter equation ([…]))), where A is the minimum y (POC) value, B is the maximum y (POC), C is the x (compound concentration) at the point of inflection and D is the slope factor, using a Levenburg-Marquardt non-linear regression algorithm. The inhibition constant (Ki) of the inhibitor was estimated from the IC50 (compound concentration at the point of inflection C) using the Cheng-Prussof equation: […] All results were expressed as the mean±the standard error of the mean. Data acquisition and non-linear regression algorithms were performed using Activity Base v5.2 and XL-fit software v4.1 respectively. All data was archived using Activity Base v5.2 software.
On the technique in general: TR-FRET usually uses a lanthanide donor and a delayed reading to cut background.

Experiment [1] concerns TNF-α induced IL-8 in 50% human whole blood. Put plainly: Inhibition of TNF-α induced IL-8 in 50% human whole blood. It is filed as cell-based. The procedure: Inhibition of TNF-α Induced IL-8 in 50% Human Whole Blood
Test compounds were evaluated in vitro for the ability to inhibit the production of secreted IL-8 by whole blood activated with TNF-α. Fresh human whole blood was obtained from healthy, non-medicated volunteers in sodium heparin tubes.
Compound Dilution—Assay Procedure
Test compounds are serially diluted 1:3 in DMSO and then diluted 1:250 into R10 (RPMI 1640, 10% human serum AB, 1× pen/strep/glutamine) to the 4× working concentration to be used in the assay. 100 ul heparinized whole blood is plated into wells of 96 well flat bottom plates. 50 ul of either 4× compound or DMSO control (Final DMSO concentration is 0.1%) are added to the appropriate wells. Plates are incubated for 1 hour at 37 degrees Celsius. 50 ul of 4×TNF-α (4 nM TNF-α, for a final concentration of 1 nM) or control (media alone) is added to the appropriate wells (Total volume=200 ul). Plates are incubated overnight (16-18 hours). 100 ul of supernatant is collected and stored in 96-well round bottom polypropylene plates at −80 degrees Celsius or assayed immediately for IL-8.
Cytokines are measured on antibody (Ab) sandwich ECL based 96-well detection plates. 20 ul of supernatant are added to plate and plate is sealed and shaken at RT for 1 hour. 130 ul of detection Ab cocktail is added and plates are sealed and shaken for 1 hour in the dark at RT. Plates are read on MSD Sector HTS instrument. Data are analyzed and IC50 values generated using Activity Base and X1-fit programs.

The subject of experiment [2] is production of IL-1β, IL-6, and TNF-α by PBMC activated with LPS. Put plainly: Lipopolysaccharide-activated PBMC cytokine production assay. It is filed as cell-based. As to conditions: Homo sapiens, LPS 100 ng/mL, 18 hours, read-out: IC50 in PBMC cytokine production assay. The method, then:
Lipopolysaccharide-Activated Pbmc Cytokine Production Assay
Test compounds were evaluated in vitro for the ability to inhibit the production of IL-1β, IL-6, and TNF-α by PBMC activated with bacterial lipopolysaccharide (LPS). Fresh leukocytes were obtained from a local blood bank, and peripheral blood mononuclear cells (PBMCs) were isolated by density gradient centrifugation on Ficol-Paque Plus (Pharmacia).
Preparation of Test Compound Stock Solutions
All reagents were prepared in RPMI 1640+10% v/v human AB serum+1× Pens/Strep/Glu (assay medium). Test compounds were dissolved in 100% DMSO and serially diluted in 96-well polypropylene round bottom micro titer plates (drug plate). Serial dilutions were then diluted 1:250 into assay medium to a 4× working concentration. Compound serial dilutions were half-log, 10 point titrations with a final starting concentration of 1 μM.
Treatment of Cells with Test Compounds and Activation with Lipopolysaccharide
LPS was prepared to a 4× concentration in assay medium. 100 μl of PBMC (1×10^6 cells/ml) were plated in a 96-well polystyrene flat bottom micro titer tissue culture plate and incubated with 50 μl of 4× compound serial dilution for 1 hour at 37° C., 5% CO2 in a tissue culture incubator. 50 μl 4×LPS or control was added and the plates were incubated at 37° C., 5% CO2 in a tissue culture incubator for 18 hours. The final DMSO concentration was 0.1%. The total volume was 200 μL. The final LPS concentration was 100 ng/mL. After 18 hours culture supernatants were removed and IL-1β, IL-6, and TNF-α presence in the supernatants was quantified using MSD ECL based technology.
20 μL of culture supernatant were added to MSD plates, and incubated for one hour at room temperature. 20 μL of detection antibody diluted in antibody diluent (1 μg/mL), and 110 μL of 2× Read Buffer P was added, and incubated for one hour at RT. Electrochemiluminescence was measured using the SECTOR HTS Imager (MSD, Gaithersburg, Md.).
Compound IC50 values were calculated as follows: The proportion of cytokine production in the presence of compound compared to the cytokine production in the presence of the DMSO vehicle alone (Hi control) was calculated using the formula: Percent Control (POC)=(compound−average Lo)/(average Hi−average Lo)*100.

The test system of experiment [3] is TNF-α production by LPS-activated THP1 cells. Put plainly: Lipopolysaccharide-activated THP1 cell TNF production assay. As to conditions: Homo sapiens, THP-1; THP1 cells, LPS, 3 hours; read-out: IC50 in THP-1 cellular TNF production assay. Type of experiment: cell-based. The procedure:
Lipopolysaccharide-Activated THP1 Cell TNF Production Assay
THP1 cells were resuspended in fresh THP1 media (RPMI 1640, 10% heat-inactivated FBS, 1×PGS, 1×NEAA, plus 30 μM βME) at a concentration of 1.5×10^6 cells per mL. One hundred microliters of cells per well were plated in a polystyrene 96-well tissue culture plate. 1.5 micrograms per mL of bacterial LPS was prepared in THP1 media and transferred to the first 11 columns of a 96-well polypropylene plate. Column 12 contained only THP1 media for the LO control. Compounds were dissolved in 100% DMSO and serially diluted 3 fold in a polypropylene 96-well microtiter plate (drug plate). Columns 6 and 12 were reserved as controls (HI controls and LO controls respectively) and contained only DMSO. 10 μL of LPS followed by one microliter of inhibitor compound from the drug plate was transferred to the cell plate. The treated cells were induced to synthesize and secrete TNF-α in a 37° C. humidified incubator with 5% CO2 for 3 hours. Fifty microliters of conditioned media was transferred to a 96-well MULTI-ARRAY™ 96-well small spot plate—custom coated with MAB610 containing 100 μL of 2× Read Buffer P supplemented with 0.34 nM AF210NA polyclonal Ab labeled with ruthenium (MSD—Sulfo-TAG™—NHS ester). After an overnight incubation at room temperature with shaking, the reaction was read on the Sector Imager™ 6000. […] The amount of secreted TNF-α in the presence of test compounds compared with that in the presence of DMSO vehicle alone (HI control) was calculated using the formula: % control (POC)=(cpd−average LO)/(average HI−averageLO)*100. Data (consisting of POC and inhibitor concentration in μM) was fitted to a 4-parameter equation (y=A+((B−A)/(1+((x/C)^D))), where A is the minimum y (POC) value, B is the maximum y (POC), C is the x (cpd concentration) at the point of inflection and D is the slope factor) using a Levenburg-Marquardt non-linear regression algorithm.

The mark [4] stands for this setting: TNF-α (1 nM) induced IL-8, 50% human whole blood, 16-18 h, read-out: WB TNF/IL8 IC50.

Each structure is given as a SMILES string. Where two headings read alike, the source gives them in different places. Bounds are passed on as bounds.

Sequence of recombinant human p38α (Q16539 whole entry): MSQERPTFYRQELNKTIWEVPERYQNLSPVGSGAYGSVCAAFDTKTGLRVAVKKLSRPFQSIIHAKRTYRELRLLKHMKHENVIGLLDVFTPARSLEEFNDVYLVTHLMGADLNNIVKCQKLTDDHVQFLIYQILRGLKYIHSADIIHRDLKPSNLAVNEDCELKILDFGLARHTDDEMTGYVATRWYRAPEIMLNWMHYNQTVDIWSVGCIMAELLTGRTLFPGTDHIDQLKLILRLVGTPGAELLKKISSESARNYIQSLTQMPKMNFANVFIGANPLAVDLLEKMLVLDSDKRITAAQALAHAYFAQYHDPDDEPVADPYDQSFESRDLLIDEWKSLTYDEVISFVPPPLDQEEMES

For the compound `Cn1c(=O)c(-c2cc(C(=O)O)ccc2Cl)cc2cnnc(-c3ccc(F)cc3F)c21` [Example 4, 4-chloro-3-(8-(2,4-difluorophenyl)-1-methyl-2-oxo-1,2-dihydropyrido[3,2-d]pyridazin-3-yl)benzoic acid], the IC50 on recombinant human p38α was over 1000 nM; in experiment [1] (read-out: WB TNF/IL8 IC50, TNF-α (1 nM) induced IL-8, 50% human whole blood, 16-18 h), over 2500 nM.

For `CCn1c(=O)c(-c2cc(C(=O)NC3CC3)cc(F)c2C)cc2cnnc(-c3ccc(F)cc3F)c21` [Example 22, N-cyclopropyl-3-(8-(2,4-difluorophenyl)-1-ethyl-2-oxo-1,2-dihydropyrido[2,3-d]pyridazin-3-yl)-5-fluoro-4-methylbenzamide], the IC50 was 1.3 nM at recombinant human p38α, at most 1000 nM in experiment [2] and at most 1000 nM in experiment [3].

Consider `CCn1c(=O)c(-c2cc(C(=O)NC3CC3)ccc2C)cc2cnnc(-c3ccc(F)cc3F)c21` [Example 23, N-cyclopropyl-3-(8-(2,4-difluorophenyl)-1-ethyl-2-oxo-1,2-dihydropyrido[2,3-d]pyridazin-3-yl)-4-methylbenzamide], for which the figures for the IC50 (at recombinant human p38α; in experiment [2]; in experiment [3]) were 1.5 nM, at most 1000 nM and at most 1000 nM, respectively.

Turning to `Cc1ccc(C(=O)Nc2ccon2)cc1-c1cc2cnnc(-c3ccccc3Cl)c2n(C)c1=O` [Example 25, 3-(8-(2-chlorophenyl)-1-methyl-2-oxo-1,2-dihydropyrido[2,3-d]pyridazin-3-yl)-N-3-isoxazolyl-4-methylbenzamide], the IC50 was 0.9 nM on recombinant human p38α, at most 1000 nM in experiment [2] and at most 1000 nM in experiment [3].

On to `Cc1ccc(C(=O)NC2CC2)cc1-c1cc2cnnc(-c3ccc(S(C)(=O)=O)cc3C)c2n(C)c1=O` [Example 26, N-cyclopropyl-4-methyl-3-(1-methyl-8-(2-methyl-4-(methylsulfonyl)phenyl)-2-oxo-1,2-dihydropyrido[2,3-d]pyridazin-3-yl)benzamide], for which the IC50 at recombinant human p38α was 3.3 nM; in experiment [1] (setting [4]) it was 10 nM.

On to `Cc1cc(S(C)(=O)=O)ccc1-c1nncc2cc(-c3cc(C(=O)NC4CC4)cc(F)c3C)c(=O)n(C)c12` [Example 27, N-cyclopropyl-3-fluoro-4-methyl-5-(1-methyl-8-(2-methyl-4-(methylsulfonyl)phenyl)-2-oxo-1,2-dihydropyrido[2,3-d]pyridazin-3-yl)benzamide], for which the IC50 turned out to be 2.5 nM at recombinant human p38α and 3.9 nM in experiment [1] (setting [4]).

On to `CCn1c(=O)c(-c2cc(C(=O)NC3CC3)ccc2C)cc2cnnc(-c3ccccc3Cl)c21` [Example 28, 3-(8-(2-chlorophenyl)-1-ethyl-2-oxo-1,2-dihydropyrido[2,3-d]pyridazin-3-yl)-N-cyclopropyl-4-methylbenzamide], for which the IC50 (at recombinant human p38α; in experiment [1] (setting [4])) was 1 nM in each case.

Regarding `Cc1ccc(C(=O)NC2(C)CC2)cc1-c1cc2cnnc(-c3ccc(F)cc3F)c2n(C)c1=O` [Example 29, 3-(8-(2,4-difluorophenyl)-1-methyl-2-oxo-1,2-dihydropyrido[2,3-d]pyridazin-3-yl)-4-methyl-N-(1-methylcyclopropyl)benzamide], the IC50 on recombinant human p38α was 3 nM; in experiment [2], at most 1000 nM; in experiment [3] it was at most 1000 nM.

As for `Cc1cnc(C(=O)NC2CC2)cc1-c1cc2cnnc(-c3ccc(F)cc3F)c2n(C)c1=O` [Example 30, N-cyclopropyl-4-(8-(2,4-difluorophenyl)-1-methyl-2-oxo-1,2-dihydropyrido[2,3-d]pyridazin-3-yl)-5-methyl-2-pyridinecarboxamide], the figures for the IC50 (on recombinant human p38α; in experiment [1] (setting [4])) were 14 nM and 38 nM, respectively.

For the compound `CNC(=O)c1ccc(C)c(-c2cc3cnnc(-c4ccc(F)cc4F)c3n(C)c2=O)c1` [Example 31, 3-(8-(2,4-difluorophenyl)-1-methyl-2-oxo-1,2-dihydropyrido[2,3-d]pyridazin-3-yl)-N,4-dimethylbenzamide], the IC50 at recombinant human p38α came out at 2.7 nM; in experiment [1] (setting [4]) it was 30 nM.

For `Cc1ccc(C(=O)Nc2nccs2)cc1-c1cc2cnnc(-c3ccc(F)cc3F)c2n(C)c1=O` [Example 32, 3-(8-(2,4-difluorophenyl)-1-methyl-2-oxo-1,2-dihydropyrido[2,3-d]pyridazin-3-yl)-4-methyl-N-1,3-thiazol-2-ylbenzamide], the results for the IC50 (on recombinant human p38α; in experiment [1] (setting [4])) were 1.2 nM and 7.3 nM, respectively.

Regarding `Cc1ccc(C(=O)Nc2ccon2)cc1-c1cc2cnnc(-c3ccc(F)cc3F)c2n(C)c1=O` [Example 33, 3-(8-(2,4-difluorophenyl)-1-methyl-2-oxo-1,2-dihydropyrido[2,3-d]pyridazin-3-yl)-N-3-isoxazolyl-4-methylbenzamide], the IC50 in experiment [1] (setting [4]) was found to be 1.7 nM.
